{"source": "patent US20220282222A1", "about": "“BIO-PRINTED KIDNEY TISSUE” (MURDOCH CHILDREN'S RESEARCH INSTITUTE, priority 2019, published 2022)", "key": {"[1]": {"tested_on": "podocytes of the organoid glomeruli", "experiment": "Immunofluorescence analysis of bio-printed organoid sections after Doxorubicin treatment", "format": "cell-based, human", "details": "10 μM Doxorubicin, 72 hours", "description": "For paraffin-embedded organoids, deparaffinized sections were antigen retrieved in citrate buffer, pH 6.0 (Diagnostic BioSystems, Pleasonton, CA #K035) then blocked in 5% chick serum diluted in TBS-T (v/v) prior to immunofluorescence. For whole mount organoids, organoid harvest, fixation and blocking, and immunofluorescence of prepared sections and whole organoids was performed as described previously (Vanslambrouck J M, et al. J Am Soc Nephrol 30, 1811-1823 (2019)). Images were obtained as described in Vanslambrouck J M, et al. or using an Andor spinning disk confocal microscope with Nikon 25×1.05NA silicone immersion objective.\nDoxorubicin (Sigma-Aldrich, D1515) stock solution was prepared in DMSO. Amikacin, Tobramycin, Gentamycin, Neomycin, and Streptomycin were all procured through Sigma Aldrich (St. Louis, Mo.) and prepared as a 25 mg/ml solution in APEL media. Dosing for 6-well nephrotoxicity studies was performed by initially diluting doxorubicin DMSO stock in APEL media, and subsequently diluting further with additional media to achieve concentrations ranging from 0.3 to 10 μM. Dosing for 96-well nephrotoxicity evaluation was performed by serial dilution. For Doxorubicin, serial dilution of DMSO stocks was added to APEL media to achieve concentrations ranging from 24 nM to 25 μM. […]"}, "[2]": {"tested_on": "bio-printed kidney organoids", "experiment": "Organoid viability assessment by ATP content (CellTiter-Glo / CellTiter-Glo 3D) after drug treatment", "details": "for IC50: Homo sapiens, 72 h; for Cell viability as measured by cellular ATP content: 96-well format, 72-hour treatment, wide concentration range (1.5 μg/mL to 25 mg/mL)", "description": "(§1) Doxorubicin (Sigma-Aldrich, D1515) stock solution was prepared in DMSO. Amikacin, Tobramycin, Gentamycin, Neomycin, and Streptomycin were all procured through Sigma Aldrich (St. Louis, Mo.) and prepared as a 25 mg/ml solution in APEL media. Dosing for 6-well nephrotoxicity studies was performed by initially diluting doxorubicin DMSO stock in APEL media, and subsequently diluting further with additional media to achieve concentrations ranging from 0.3 to 10 μM. Dosing for 96-well nephrotoxicity evaluation was performed by serial dilution. For Doxorubicin, serial dilution of DMSO stocks was added to APEL media to achieve concentrations ranging from 24 nM to 25 μM. Aminoglycoside stock solutions were diluted serially with APEL media to generate dosing concentrations ranging from 1.5 μg/mL to 25 mg/mL. Drug dosing was initiated after day 21 or day 22 of the differentiation protocol. Dosing was performed by applying the full well volume of APEL medium±test article to the apical basket of a Transwell permeable support (4 mL for 6-well plates, 300 μL for 96-well plates). As media containing test articles was added to the Transwell permeable support, the organoids were fully submerged and exposed to any added compounds as the apical and basolateral compartments equilibrated. Drug-supplemented medium was replaced every other day until designated harvest time point.\nKidney organoid viability following drug treatment was assessed by measuring ATP content with CellTiter-Glo or CellTiter-Glo 3D viability assays (Promega, Madison, Wis., USA). In brief, harvested organoids from bio-printed in 6-well plates were individually loaded into Precellys tubes (Bertin Technologies, Bretonneux, France) with CellTiter-Glo buffer and dissociated using a Precellys 24 tissue homogenizer (Bertin Technologies, Bretonneux, France). Homogenized organoids were incubated at room temperature for 10 minutes, then centrifuged at 1000 g for 2 minutes to separate buffer from homogenizing beads. Supernatants were transferred to a white opaque 96-well plate for luminescence measurement on a microplate reader (BMG Labtech, Germany). […] To analyse the ATP content in organoids bio-printed on 96-well plates, all media was aspirated and CellTiter-Glo 3D reagent was added to the apical chamber of Transwell permeable support. The plate was shaken at 400 rpm for 5 minutes at room temperature, and then allowed to sit for 25 minutes prior to luminescent measurement in a white opaque 96-well plate on a microplate reader (BMG Labtech, Germany). Viability analysis was reported as percent of control by normalizing the ATP content of treated organoids relative to control organoids. […]"}, "[3]": {"tested_on": "bio-printed kidney organoids", "experiment": "Quantitative RT-PCR gene expression analysis following drug exposure", "format": "cell-based, human", "details": "72 hours", "description": "as §1\nTotal RNA extraction from kidney organoids following drug exposure was performed using an Rneasy Mini kit (Qiagen, Germany) per manufacturer's instructions. RNA was quantified with spectrophotometry with a NanoDrop 2000 (Thermo Fisher, Carlsbad, Calif.). To analyse gene expression, TaqMan Fast One-Step qPCR Master Mix (Applied Biosystems, Foster City, Calif.), TaqMan Probes for genes of interest (ThermoFisher, Carlsbad, Calif.), and house-keeping gene probes (Applied Biosystems, Foster City, Calif.) were combined in assigned wells with RNA. All qPCR reactions were performed and analysed on a StepOnePlus qRT-PCR system (Applied Biosystems, Foster City, Calif.). All data was normalized to house-keeping gene GAPDH prior to normalizing to control samples."}, "[4]": {"details": "10 μM Doxorubicin, normalized to GAPDH and control"}}, "note": "“Also recorded” adds a separate entry of the source. Like-named read-outs stand apart in the source and are kept apart here."}
{"molecule": "COc1cccc2c1C(=O)c1c(O)c3c(c(O)c1C2=O)C[C@@](O)(C(=O)CO)C[C@@H]3O[C@H]1C[C@H](N)[C@H](O)[C@H](C)O1", "note": "[Doxorubicin]", "values": [{"measurement": "Caspase 3 activation (cleaved caspase 3, apoptosis) in podocytes", "setting": "[1]", "result": "induction of apoptosis; also recorded: specific activation of caspase 3"}, {"measurement": "MAFB staining within podocytes of organoid glomeruli", "setting": "[1]", "result": "podocyte specific loss of MAFB expression; also recorded: loss of MAFB staining"}, {"measurement": "IC50", "setting": "[2]; read-out: 6-well IC50 (viability, ATP content)", "result": "3.9 ± 1.8", "unit": "µM"}, {"measurement": "IC50", "setting": "[2]; read-out: 96-well IC50 (viability, ATP content)", "result": "3.1 ± 1", "unit": "µM"}, {"measurement": "Expression of podocyte marker NPHS1", "setting": "[3]; 2 μM Doxorubicin", "result": "downregulated"}, {"measurement": "Expression of podocyte marker PODXL", "setting": "[3]; 2 μM Doxorubicin", "result": "downregulated"}, {"measurement": "Expression of proximal tubule gene CUBN", "setting": "[3]; 2 μM or 10 μM Doxorubicin", "result": "only downregulated in response to 10 μM Doxorubicin"}, {"measurement": "Expression of apoptotic indicator Bcl2-associated X protein (BAX)", "setting": "[3]; [4]", "result": "upregulation"}, {"measurement": "Expression of kidney injury molecule KIM1 (HAVCR)", "setting": "[3]; [4]", "result": "upregulation"}]}
{"molecule": "Neomycin", "values": [{"measurement": "Cell viability as measured by cellular ATP content", "setting": "[2]", "result": "decreased in a concentration-dependent fashion"}]}
{"molecule": "Gentamycin", "values": [{"measurement": "Cell viability as measured by cellular ATP content", "setting": "[2]", "result": "decreased in a concentration-dependent fashion"}]}
